Values joined by “and” are separate entries in the source; they are usually repeats but may differ in a detail not shown here. Equal values may be shown once. “Also recorded” adds a separate entry of the source.
Key:
[1] = Size exclusion chromatography (SEC), self-assembly; type: physicochemical; conditions: Superdex200 Increase 10/300; independent of initial concentration
Protocol: (§1) SUPPORTING INFORMATION: Method Section.
(§2) Sex as a biological variable.
(§3) All peptides were ordered from WuXI AppTec (Shanghai, China) or TAG-Copenhagen […]
Protein expression and purification.
Full length rat PICK1 (pET41) was, as described earlier (1), expressed in BL21-DE3-pLysS and grown at 37 °C, induced at OD600= 0.6 with 1 mM IPTG, and grown for 16 hours at 20 °C.
Cultures were harvested and re-suspended in 50 mM Tris, 125 mM NaCl, 2 mM DTT (Sigma), 1% Triton X-100 (Sigma), 20 µg/mL DNAse 1 and half a tablet of cOmplete protease inhibitor cocktail (Roche) pr. 1 L culture. The resuspended pellets were frozen at -80 °C for later purification. The lysate was cleared by centrifugation (36,000 x g for 30 min at 4 °C), and the supernatant was incubated with Glutathione-Sepharose 4B beads (GE Healthcare) for two hours at 4 °C under gentle rotation and then centrifuged at 4000 x g for 5 min. The supernatant was removed, and the beads were washed twice in 35 mL 50 mM Tris, 125 mM NaCl, 2 mM DTT, and 0.01% Triton-X100. The beads were transferred to PD-10 Bio-Spin® Chromatography columns (Bio-Rad) and washed with an additional 3 column volumes. Each column was sealed and 0.075 U/µL, Novagen® was added for cleavage O/N at 4 °C under gentle rotation. PICK1 was eluted on ice and concentration was measured on a NanoDrop 3000. […]
Size Exclusion Chromatography (SEC). […]

[2] = Stability of mPD5 in PBS, 30 days at 5 °C and 25 °C, HPLC-UV-MS
Protocol: as §1, §2, §3
Assessment of solubility and stability of mPD5.
Solubility was determined by visual inspection of samples dissolved in increasing concentration in 10 mM PBS as judged by full transparency and monophasic appearance.
Stability was addressed by […] for four concentrations (2, 20, 50, and 200 µM), by leaving mPD5 in PBS at 5 °C and 25 °C for 30 days followed by HPLC-UV-MS. […]
Superdex200 Increase 10/300.

[3] = Plasma exposure after single s.c. injection, LC-MS/MS; type: in vivo, mouse; set-up: maximal plasma concentration / plasma concentration, individual mice: unit not given here
Protocol: Assessment of plasma levels and biodistribution of mPD5.
The mPD5 plasma exposure was determined by (WuXI AppTec (Shanghai, China)) and done following s.c. injection of three male C57BL/6N (vendor: VTLH) mice (7-9 weeks old, fasted) with each concentration of mPD5 (2, 10 and 50 µmol/kg) in sterile PBS. Blood samples were taken 30 min, 1 hour, 2 hours, 5 hours, and 12 hours following injection. For the repeated administration experiment, the initial s.c. injection of 10 µmol/kg was followed by 4 s.c. administrations of 2 µmol/kg with one hour between injections. Following the last injection, blood samples (0.03 mL from saphenous vein or other suitable site) were collected in EDTA- […]
K2 tubes at 5 min, 30 min, 1 hour, 5 hours, 12 hours, 24 hours, and 48 hours and centrifuged (app 4 ℃, 3200 g, 10 min) for collection of plasma. Plasma was transferred to 96 well plates and quick-frozen over dry ice and kept at -60 ℃ until LC-MS/MS analysis. For LC-MS/MS analysis plasma with 0.25% Triton X100 in 50% MeOH/water (6 µL) was quenched with 160 µL of IS1 (internal standard in MeOH (Labetalol & tolbutamide & Verapamil & dexamethasone & glyburide & Celecoxib 100 ng/mL for each)) and the mixture was vortexed for 10 min at 800 rpm and centrifuged for 15 min at 3220 × g at 4 ℃. An aliquot of 65 µL supernatant was transferred to a clean 96-well plate and centrifuged for 5 min at 3220 × g at 4 ℃, then the supernatant was directly injected for LC-MS/MS analysis. Plasma half-lives were determined from three points in the elimination phase. […]

[4] = Plasma exposure after repeated s.c. administration (10 + 2 + 2 + 2 + 2 μmol/kg), LC-MS/MS; type: in vivo, mouse; conditions: 10µmol/kg repeated
[5] = 30 days 5°C, nominal conc. 2 μM
[6] = 30 days 5°C, nominal conc. 20 μM
[7] = 30 days 5°C, nominal conc. 50 μM
[8] = 30 days 5°C, nominal conc. 200 μM
[9] = 30 days 25°C, nominal conc. 2 μM
[10] = 30 days 25°C, nominal conc. 20 μM
[11] = 30 days 25°C, nominal conc. 50 μM
[12] = 30 days 25°C, nominal conc. 200 μM

CCCCCCCCCCCCCC(=O)N(CCOCCOCCC(=O)N[C@@H](Cc1c[nH]cn1)C(=O)N[C@@H](Cc1c[nH]c2ccccc12)C(=O)N[C@@H](CC(C)C)C(=O)N[C@@H](CCCCN)C(=O)N[C@H](C(=O)O)C(C)C)CCOCCOCCC(=O)N[C@@H](Cc1c[nH]cn1)C(=O)N[C@@H](Cc1c[nH]c2ccccc12)C(=O)N[C@@H](CC(C)C)C(=O)N[C@@H](CCCCN)C(=O)N[C@H](C(=O)O)C(C)C [mPD5, myristoyl-NPEG4-(HWLKV)2]
SEC elution volume [1]: approximately 14.2 mL
Measured conc. mPD5 [2, 5]: 0.5 µM
UV-HPLC peak area [2, 5]: 37
pH [2, 5]: 7.37
Measured conc. mPD5 [2, 6]: 17 µM
UV-HPLC peak area [2, 6]: 1196
pH [2, 6]: 7.40
Measured conc. mPD5 [2, 7]: 49 µM
UV-HPLC peak area [2, 7]: 3347
pH [2, 7]: 7.39
Measured conc. mPD5 [2, 8]: 194 µM
UV-HPLC peak area [2, 8]: 6665
pH [2, 8]: 7.37
Measured conc. mPD5 [2, 9]: 0.4 µM
UV-HPLC peak area [2, 9]: 26
pH [2, 9]: 7.37
Measured conc. mPD5 [2, 10]: 17 µM
UV-HPLC peak area [2, 10]: 1161
pH [2, 10]: 7.39
Measured conc. mPD5 [2, 11]: 48 µM
UV-HPLC peak area [2, 11]: 3325
pH [2, 11]: 7.41
Measured conc. mPD5 [2, 12]: 203 µM
UV-HPLC peak area [2, 12]: 7005
pH [2, 12]: 7.36
shelf stability ([2]; PBS, 30 days, 5°C and 25°C): excellent shelf stability
half-life ([3]; male, C57BL/6N, mouse, plasma, sc, 2 umol/kg, mice, s.c. 2 μmol/kg): 30 ± 4.2 min
half-life ([3]; male, C57BL/6N, mouse, plasma, sc, 10 umol/kg, mice, s.c. 10 μmol/kg): 35.4 ± 4.2 min
half-life ([3]; male, C57BL/6N, mouse, plasma, sc, 10 umol/kg; mice, s.c. 10 μmol/kg): 36 min
half-life ([3]; male, C57BL/6N, mouse, plasma, sc, 50 umol/kg, mice, s.c. 50 μmol/kg): 50.4 ± 1.8 min
Tmax ([3]; male, C57BL/6N, mouse, plasma, sc, 50 umol/kg; mice, s.c., all doses (2, 10, 50 μmol/kg); read-out: time of maximal plasma concentration): 60 min
maximal plasma concentration ([3]; mice, s.c. 2 μmol/kg, 1 hour): 1.4 ± 0.1
maximal plasma concentration ([3]; mice, s.c. 10 μmol/kg, 1 hour): 6.2 ± 5
maximal plasma concentration ([3]; mice, s.c. 50 μmol/kg, 1 hour): 20.2 ± 0.6
maximal dose and area under the curve vs dose ([3]; mice, s.c. 2, 10, 50 μmol/kg): scaled linearly with dose
distribution volume ([3]; mice, s.c., all concentrations): approximately 30 mL
elimination kinetics ([3]; mice, s.c., all doses): first-order kinetics; also recorded: eliminated with linear kinetics
plasma concentration, individual mice ([3]; s.c. 2µmol/kg; 0.5 h): 1295 and 1523 and 1490
plasma concentration, individual mice ([3]; s.c. 2µmol/kg; 1 h): 1326 and 1469 and 1351
plasma concentration, individual mice ([3]; s.c. 2µmol/kg; 2 h): 439 and 392 and 443
plasma concentration, individual mice ([3]; s.c. 2µmol/kg; 5 h): 8.69 and 2.25 and 8.61
plasma concentration, individual mice ([3]; s.c. 10µmol/kg; 0.5 h): 4235 and 5102 and 3488
plasma concentration, individual mice ([3]; s.c. 10µmol/kg; 1 h): 6616 and 5618 and 6285
plasma concentration, individual mice ([3]; s.c. 10µmol/kg; 2 h): 2485 and 2007 and 1777
plasma concentration, individual mice ([3]; s.c. 10µmol/kg; 5 h): 101 and 46.6 and 33.1
plasma concentration, individual mice ([3]; s.c. 50µmol/kg; 0.5 h): 12546 and 11390 and 17752
plasma concentration, individual mice ([3]; s.c. 50µmol/kg; 1 h): 20045 and 20980 and 19750
plasma concentration, individual mice ([3]; s.c. 50µmol/kg; 2 h): 14800 and 13957 and 8907
plasma concentration, individual mice ([3]; s.c. 50µmol/kg; 5 h): 1391 and 1198 and 438
plasma concentration, individual mice ([3]; s.c. 50µmol/kg; 12 h): 3.21 and 3.81 and 2.66
Plasma exposure, Fig 7B, individual mice [4]: 2068 and 1389 and 1614
